Experimental data taken from publication PMC4830886, “Extended evaluation on the ES-D3 cell differentiation assay combined with the BeWo transport model, to predict relative developmental toxicity of triazole compounds” (Archives of Toxicology, 2015).

Experiments:
[1] = in vitro; settings: human
Description: (§1) To study placental transfer of test compounds, BeWo transport experiments were performed as described previously (Li et al. [2013]). Briefly, BeWo b30 cells (passages 27–45) were cultured in DMEM (Zwijndrecht, The Netherlands), supplemented with 10 % (v/v) heat-inactivated FCS (HyClone-Perbio, Etten-Leur, The Netherlands), 10,000 U/ml penicillin, 10 mg/ml streptomycin and 2 mM L-glutamine. The cells were seeded at a density of 1 × 10^5 cells/cm^2 on transwell® polycarbonate membranes (12 mm diameter, 0.4 μm pore size) (VWR International BV, Amsterdam, The Netherlands) coated with human placental collagen. The medium (0.5-ml apical compartment, 1.5-ml basolateral compartment) was replaced daily. At day 6 postseeding, the BeWo b30 cell layers were used for transport experiments. The barrier-forming capacity of the BeWo cell layers was evaluated by measuring the transepithelial electrical resistance (TEER) of the cell monolayer using a Millicell ERS-2 Volt-Ohm Meter (Millipore, USA) at day 6 postseeding as described previously (Li et al. [2013]). Only the cell layers showing TEER values between 80 and 100 Ω cm^2 were used for transport experiments.
(§2) Transport experiments were initiated by adding 0.5 ml of transport buffer Hank’s balanced salt solution (HBSS, Invitrogen, Breda, The Netherlands) containing the test compound, being 0594, 0595, 0596, 0599, 0600 and 0618, dissolved in DMSO (final solvent concentration 0.5 % DMSO), at concentration of 50 μM, to the apical compartment and 1.5 ml transport buffer to the basolateral compartment. Subsequently, the plate was incubated in a humidified atmosphere with 5 % CO2 at 37 °C. After 15, 30, 60 and 90 min, a sample of 0.2 ml was taken from the basolateral compartment and replaced by an equal volume of transport buffer. At the end of each experiment, a 0.2-ml sample was also taken from the apical compartment. Subsequently, the filters with the BeWo b30 cell layers were washed three times with PBS, cut out of the insert, dissolved in 0.25 ml 65 % (v/v) methanol and sonificated for 15 min in a Bandelin Sonorex RK100 (Berlin, Germany) in order to determine the amount of compound accumulated in the cells. After each experiment, mass balance calculations were performed. In each transport study, amoxicillin and antipyrine were included as control and reference compounds. Amoxicillin transport was included to assess for monolayer integrity since it is a compound known to be transported only to a limited extent across the placenta, whereas antipyrine was included as a control for optimal transport and a reference compound to enable calculation of relative transport rates (Li et al. [2013]). The transport of the six test compounds, as well as the reference compounds amoxicillin and antipyrine, through the permeable membrane of the transwell filter in the absence of BeWo cells was determined as well. […] For each test compound, three independent experiments were performed, with three technical replicates per experiment.
(§3) Samples were analyzed using high-performance liquid chromatography (HPLC) to quantify the amount of test compound in order to determine the transport rate and to perform mass balance calculations. The HPLC system used consisted of a Waters (Milford, MA) 600 controller and a 600 pump, equipped with a photodiode array detector set to record absorption of wavelengths between 200 and 400 nm. A Waters 717 plus autosampler was used for sample injection. The temperature of the autosampler was kept at 7 °C.
(§4) For analysis of all compounds, 50 μl sample was injected to a C18 5 μm reverse-phase column (150 mm × 4.6 mm I.D.) with a guard column (7.5 mm × 4.6 mm I.D.) (Alltech, Bergen op Zoom, The Netherlands). The mobile phase used for analysis of all the test compounds consisted of (A) 0.1 % trifluoroacetic acid in nanopure water and (B) HPLC-grade acetonitrile. Elution was at a flow rate of 0.8 ml/min, starting at 22 % B with a linear increase to 100 % B in 8 min.

[2] = tested on: BeWo b30 cell layers; test: in vitro BeWo transport model (placental transfer)
Description: as §1, §2, §3, §4

SMILES	Papp at 30 min, 50 μM [1] [×10⁻⁶ cm/s]	Intracellular accumulation (% of added amount) ([2]; human, 90 min, 50 μM)	Relative Papp value ([2]; human, not told, 50 μM)	Intracellular accumulation (% of added amount) ([2]; BeWo cells, 50 μM (25 nmol) apical, at 90 min)
Cc1cc(=O)n(-c2ccccc2)n1C [Antipyrine, antipyrine, reference compound]	38.9 ± 3	0 % of added amount	1.00	–
CC1(C)S[C@@H]2[C@H](NC(=O)[C@H](N)c3ccc(O)cc3)C(=O)N2[C@H]1C(=O)O [Amoxicillin, amoxicillin, reference compound]	6.5 ± 0.2	–	–	0 % of added amount
